According to US8901118B2, “Compounds and methods for kinase modulation, and indications therefor” (Plexxikon Inc., priority 2010, dated 2014):

What was measured:
CYP2C19 = CYP2C19 (Homo sapiens, UniProt P33261); assay: CYP2C19 inhibition (fluorescent substrate CEC); format: in vitro ADME; details: read-out: Cyp IC50 2C19
Procedure: (§1) CYP (Cytochrome P450) enzymes are the major drug metabolizing enzymes present in the liver. The inhibition of CYP enzyme activity (IC50) for each of CYP1A2, CYP2C19, CYP2C9, CYP2D6, CYP3A4(BFC) and CYP3A4(BQ) is determined for compounds, where inhibition of metabolism of a known substrate leads to a decrease in the fluorescence of the metabolized product. The fluorescence of the product is monitored as a function of compound concentration. Compounds are dissolved in DMSO to a concentration of 100 mM. These are diluted 1 μL into 82 μL of acetonitrile. An 11 μL aliquot of this solution is then added to 204 μL of cofactor mix (1.3% NADPH Regeneration system Solution A, 1.04% NADPH Regeneration system Solution B from BD Biosciences, 5% acetonitrile and 0.05% DMSO). These are then serially diluted 1:1 (160 μL to 160 μL co-factor mix) for a total of 10 points. A 10 μL aliquot of this final mixture is dispensed into 384 well assay plates and incubated for 10 minutes at 37° C. […] Assay plates are incubated at 37° C. (CYP1A2-15 min; CYP2C9-45 min; CYP2C19, 2D6 and 3A4-30 min) and read in a Tecan Safire 2 plate reader (CYP1A2, 2C19 and 3A4 409 ex/460 em; CYP2C9 and 2D6 409 ex/530 em). The signal versus compound concentration is used to determine the IC50. The enzymes and substrates for this assay are obtained from BD Biosciences.

CYP2D6 = CYP2D6 (Homo sapiens, UniProt P10635); assay: CYP2D6 inhibition (fluorescent substrate AMMC); format: in vitro ADME; details: read-out: Cyp IC50 2D6
Procedure: as §1

c-Kit kinase = c-Kit kinase (Homo sapiens, UniProt P10721); assay: c-Kit kinase biochemical activity assay (AlphaScreen, biotin-(E4Y)10 phosphorylation); details: 100 μM ATP; read-out: Biochemical Inhibition IC50 Kit
Procedure: Assays for biochemical and cell based activity are known in the art, for example, U.S. Patent Application Publication Number 2009/0076046, the disclosure of which is hereby incorporated by reference as it relates to such assays. For example, in one assay the biochemical activity IC50 values are determined with respect to inhibition of c-Kit kinase activity, where inhibition of phosphorylation of a peptide substrate is measured as a function of compound concentration. Compounds to be tested are dissolved in DMSO to a concentration of 20 mM. These are diluted 30 μL into 120 μL of DMSO (4 mM) and 1 μL is added to an assay plate. These are then serially diluted […] (50 μL to 100 μL DMSO) for a total of 8 points. Plates are prepared such that each kinase reaction is 20 μL in 1× kinase buffer (25 mM HEPES, pH 7.5, 2 mM MgCl2, 2 mM MnCl2, 0.01% Tween-20, 1 mM DTT, 0.01% BSA), 5% DMSO and 100 μM ATP. Substrate is 30 nM biotin-(E4Y) 10 (Millipore). C-kit kinase (obtained from Millipore (#14-559) or is prepared as described in U.S. Patent Application Publication Number 2009/0076046, the disclosure of which is hereby incorporated by reference as it relates to this assay) is at 0.75 ng per sample. After incubation of the kinase reaction for 1 hour at room temperature, 5 μL of donor beads (Streptavidin coated beads (Perkin Elmer Life Science) final concentration 10 μg/mL) in stop buffer (25 mM Hepes pH 7.5, 100 mM EDTA, 0.01% BSA) is added, the sample is mixed and incubated for 20 minutes at room temperature before adding 5 μL of acceptor beads (PY20 coated beads (Perkin Elmer Life Science) final concentration 10 μg/mL) in stop buffer. The samples are incubated for 60 minutes at room temperature and the signal per well is read on Envision reader. Phosphorylated substrate results in binding of the PY20 antibody and association of the donor and acceptor beads such that signal correlates with kinase activity. The signal vs. compound concentration is used to determine the IC50.

TrkA kinase = TrkA kinase (Homo sapiens, UniProt P04629); assay: TrkA kinase biochemical activity assay (AlphaScreen); details: 100 μM ATP; read-out: Biochemical Inhibition IC50 TrkA
Procedure: In one assay the biochemical activity IC50 values are determined with respect to inhibition of TrkA kinase activity, where inhibition of phosphorylation of a peptide substrate is measured as a function of compound concentration. Compounds to be tested, dissolved in DMSO (1 μL), are added to a white 384-well plate (Costar #3705). Working stocks of TrkA kinase (UBI), biotin-(E4Y)10 substrate (Upstate Biotech, Cat#12-440), and ATP (Sigma, Cat#A-3377) are prepared in 25 mM Hepes pH 7.5, 10 mM MnCl2, 1 mM DTT, 0.01% BSA, and 0.01% Tween-20. All components are added to the 384-well plate for a final concentration of 1 ng/well TrkA, 30 nM biotin-(E4Y)10 and 100 μM ATP in a volume of 20 μL. Each sample is at 5% DMSO. The plate is shaken for 1 minute at 1200 rpm, spun for 1 minute at 1000 rpm, then incubated for 40 minutes at room temperature. Just before use, working stocks of donor and acceptor beads from the AlphaScreen PY20 Detection Kit (PerkinElmer, Cat#676601M) are prepared in 25 mM Hepes pH 7.5, 100 mM EDTA. 0.01% BSA. Donor Beads solution (Streptavidin beads) is added (5 μL) to each well to final bead concentration of 10 μg/mL. The plate is incubated at room temperature for 20 minutes. Acceptor Beads solution (PY20 coated beads) are then added to each well (5 μL) to a final concentration of bead at 10 μg/mL. The plates are incubated at room temperature for 60 minutes. Fluorescence signal is recorded on the Envision reader. Phosphorylated substrate results in binding of the PY20 antibody and association of the donor and acceptor beads such that signal correlates with kinase activity. The signal vs. compound concentration is used to determine the IC50. Similar assays are used for TrkB and Trk C kinase.

CYP3A4(BQ) = CYP3A4(BQ) (Homo sapiens, UniProt P08684); assay: CYP3A4(BQ) inhibition; format: in vitro ADME; details: CYP3A4, substrate BQ; read-out: Cyp IC50 3A4(BQ)
Procedure: as §1

Sequence of c-Kit kinase (P10721 26-976): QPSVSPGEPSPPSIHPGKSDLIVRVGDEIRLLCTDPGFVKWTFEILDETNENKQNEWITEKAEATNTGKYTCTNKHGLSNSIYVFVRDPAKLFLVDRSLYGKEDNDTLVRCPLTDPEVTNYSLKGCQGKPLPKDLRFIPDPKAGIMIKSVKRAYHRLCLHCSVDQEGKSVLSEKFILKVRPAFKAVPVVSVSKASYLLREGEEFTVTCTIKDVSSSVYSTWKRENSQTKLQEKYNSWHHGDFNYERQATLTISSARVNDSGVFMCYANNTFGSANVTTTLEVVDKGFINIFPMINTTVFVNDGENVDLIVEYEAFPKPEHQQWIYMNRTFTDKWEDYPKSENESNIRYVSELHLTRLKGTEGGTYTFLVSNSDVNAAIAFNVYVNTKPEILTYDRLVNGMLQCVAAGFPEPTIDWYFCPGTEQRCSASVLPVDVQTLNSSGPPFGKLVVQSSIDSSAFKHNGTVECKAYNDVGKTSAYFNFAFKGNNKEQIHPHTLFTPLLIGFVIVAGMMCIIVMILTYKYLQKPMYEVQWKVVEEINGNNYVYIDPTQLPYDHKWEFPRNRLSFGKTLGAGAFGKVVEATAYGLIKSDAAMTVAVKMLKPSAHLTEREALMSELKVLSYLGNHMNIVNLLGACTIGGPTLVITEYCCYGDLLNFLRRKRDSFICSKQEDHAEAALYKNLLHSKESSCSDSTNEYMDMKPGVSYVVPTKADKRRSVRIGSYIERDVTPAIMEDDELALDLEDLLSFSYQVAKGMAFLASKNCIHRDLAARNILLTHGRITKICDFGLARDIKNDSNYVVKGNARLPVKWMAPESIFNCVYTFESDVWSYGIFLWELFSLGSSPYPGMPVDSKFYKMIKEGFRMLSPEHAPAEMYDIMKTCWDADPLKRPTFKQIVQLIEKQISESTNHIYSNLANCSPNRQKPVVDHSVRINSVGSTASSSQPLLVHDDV
Sequence of CYP2C19 (P33261 whole entry): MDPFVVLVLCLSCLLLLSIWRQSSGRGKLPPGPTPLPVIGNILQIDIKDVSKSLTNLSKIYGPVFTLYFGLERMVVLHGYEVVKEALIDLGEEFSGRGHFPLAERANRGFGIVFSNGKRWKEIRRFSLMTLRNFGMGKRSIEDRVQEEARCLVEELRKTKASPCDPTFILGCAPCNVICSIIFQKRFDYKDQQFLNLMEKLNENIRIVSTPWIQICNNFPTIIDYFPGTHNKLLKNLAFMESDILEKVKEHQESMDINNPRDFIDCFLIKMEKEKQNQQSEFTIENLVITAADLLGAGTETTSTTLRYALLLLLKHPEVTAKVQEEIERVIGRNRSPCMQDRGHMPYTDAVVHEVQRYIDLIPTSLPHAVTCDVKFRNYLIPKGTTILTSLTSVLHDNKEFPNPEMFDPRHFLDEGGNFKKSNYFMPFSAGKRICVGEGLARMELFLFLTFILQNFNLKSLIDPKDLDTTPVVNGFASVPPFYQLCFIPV
Sequence of CYP2D6 (P10635 whole entry): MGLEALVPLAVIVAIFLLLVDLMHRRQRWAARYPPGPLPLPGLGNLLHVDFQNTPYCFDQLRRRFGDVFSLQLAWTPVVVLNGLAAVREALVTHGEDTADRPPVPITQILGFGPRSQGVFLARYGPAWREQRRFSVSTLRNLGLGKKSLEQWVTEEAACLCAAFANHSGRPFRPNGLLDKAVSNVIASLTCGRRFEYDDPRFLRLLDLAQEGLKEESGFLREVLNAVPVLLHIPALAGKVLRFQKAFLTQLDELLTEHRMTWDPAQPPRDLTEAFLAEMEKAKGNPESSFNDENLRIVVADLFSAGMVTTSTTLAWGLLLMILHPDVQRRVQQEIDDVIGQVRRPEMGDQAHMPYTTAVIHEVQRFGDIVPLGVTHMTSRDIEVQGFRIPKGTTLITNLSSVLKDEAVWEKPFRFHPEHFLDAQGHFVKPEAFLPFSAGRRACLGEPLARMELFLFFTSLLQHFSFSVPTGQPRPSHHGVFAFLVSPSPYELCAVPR
Sequence of TrkA kinase (P04629 33-796): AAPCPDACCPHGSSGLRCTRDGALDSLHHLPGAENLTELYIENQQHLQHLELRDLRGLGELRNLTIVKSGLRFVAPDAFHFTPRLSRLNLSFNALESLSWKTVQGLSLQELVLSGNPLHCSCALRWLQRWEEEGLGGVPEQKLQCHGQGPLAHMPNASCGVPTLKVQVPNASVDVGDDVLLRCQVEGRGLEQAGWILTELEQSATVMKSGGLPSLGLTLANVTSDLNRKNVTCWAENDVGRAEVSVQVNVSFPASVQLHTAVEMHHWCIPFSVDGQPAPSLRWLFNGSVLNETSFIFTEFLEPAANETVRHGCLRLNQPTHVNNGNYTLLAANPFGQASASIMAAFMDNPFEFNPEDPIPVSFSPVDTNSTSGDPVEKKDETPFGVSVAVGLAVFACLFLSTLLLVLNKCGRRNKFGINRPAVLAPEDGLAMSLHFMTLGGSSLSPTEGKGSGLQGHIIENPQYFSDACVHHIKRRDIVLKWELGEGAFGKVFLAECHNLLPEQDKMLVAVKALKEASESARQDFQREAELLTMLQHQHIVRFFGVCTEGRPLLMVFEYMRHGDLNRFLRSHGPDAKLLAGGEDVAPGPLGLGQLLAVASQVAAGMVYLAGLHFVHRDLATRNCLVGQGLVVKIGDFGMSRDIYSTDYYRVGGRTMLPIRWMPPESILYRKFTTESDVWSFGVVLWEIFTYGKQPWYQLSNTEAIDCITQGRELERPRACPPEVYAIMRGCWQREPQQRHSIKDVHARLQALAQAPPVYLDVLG
Sequence of CYP3A4(BQ) (P08684 whole entry): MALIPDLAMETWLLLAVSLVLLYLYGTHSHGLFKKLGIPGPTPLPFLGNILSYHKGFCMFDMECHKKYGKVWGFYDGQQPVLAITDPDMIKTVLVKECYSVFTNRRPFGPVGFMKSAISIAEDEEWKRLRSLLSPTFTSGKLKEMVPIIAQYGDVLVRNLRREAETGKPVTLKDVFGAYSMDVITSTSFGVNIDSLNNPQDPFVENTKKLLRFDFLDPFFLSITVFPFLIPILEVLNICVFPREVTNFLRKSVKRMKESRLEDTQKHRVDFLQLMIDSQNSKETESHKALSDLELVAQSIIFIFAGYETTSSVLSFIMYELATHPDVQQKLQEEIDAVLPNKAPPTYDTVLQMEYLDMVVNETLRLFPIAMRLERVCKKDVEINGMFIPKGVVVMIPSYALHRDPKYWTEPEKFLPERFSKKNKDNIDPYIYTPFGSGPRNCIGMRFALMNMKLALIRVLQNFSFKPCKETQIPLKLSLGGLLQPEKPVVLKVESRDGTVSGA

SMILES | IC50 (CYP2C19) | IC50 (CYP2D6) | IC50 (c-Kit kinase) | IC50 (TrkA kinase) | IC50 (CYP3A4(BQ))
CC1CCC(Nc2ncc(Cc3c[nH]c4ncc(Cl)cc34)cn2)CC1 (centres unmarked) [Compound P-3009, [5-(5-Chloro-1H-pyrrolo[2,3-b]pyridin-3-ylmethyl)-pyrimidin-2-yl]-(4-methyl-cyclohexyl)-amine] | < 5 µM | > 10 µM | – | – | –
Cc1cnc2[nH]cc(Cc3cnc(Nc4ccc(F)cc4)nc3)c2c1 [Compound P-3010, (4-Fluoro-phenyl)-[5-(5-methyl-1H-pyrrolo[2,3-b]pyridin-3-ylmethyl)-pyrimidin-2-yl]-amine] | > 10 µM | > 10 µM | < 0.1 µM | < 1 µM | > 10 µM
Clc1ccc(Nc2ncc(Cc3c[nH]c4ncc(Cl)cc34)cn2)cc1 [Compound P-3011, (4-Chloro-phenyl)-[5-(5-chloro-1H-pyrrolo[2,3-b]pyridin-3-ylmethyl)-pyrimidin-2-yl]-amine] | > 10 µM | > 10 µM | < 0.01 µM | > 1 µM | > 10 µM
Fc1ccc(Nc2ncc(Cc3c[nH]c4ncc(Cl)cc34)cn2)cc1 [Compound P-3012, [5-(5-Chloro-1H-pyrrolo[2,3-b]pyridin-3-ylmethyl)-pyrimidin-2-yl]-(4-fluoro-phenyl)-amine] | > 10 µM | > 10 µM | < 0.01 µM | > 1 µM | > 10 µM
Fc1nc(NC2CCC(F)(F)CC2)ccc1Cc1c[nH]c2ncc(Cl)cc12 [Compound P-3013, [5-(5-Chloro-1H-pyrrolo[2,3-b]pyridin-3-ylmethyl)-6-fluoro-pyridin-2-yl]-(4,4-difluoro-cyclohexyl)-amine] | < 5 µM | > 10 µM | < 1 µM | – | > 10 µM
Fc1ccccc1Nc1ncc(Cc2c[nH]c3ncc(Cl)cc23)cn1 [Compound P-3014, [5-(5-Chloro-1H-pyrrolo[2,3-b]pyridin-3-ylmethyl)-pyrimidin-2-yl]-(2-fluoro-phenyl)-amine] | – | – | < 0.1 µM | > 1 µM | –
Clc1cnc2[nH]cc(Cc3cnc(Nc4ccccc4Cl)nc3)c2c1 [Compound P-3015, (2-Chloro-phenyl)-[5-(5-chloro-1H-pyrrolo[2,3-b]pyridin-3-ylmethyl)-pyrimidin-2-yl]-amine] | – | – | < 1 µM | > 1 µM | –

Other lines, results leading:

IC50 (CYP2C19) | IC50 (CYP2D6) | IC50 (c-Kit kinase) | IC50 (TrkA kinase) | IC50 (CYP3A4(BQ)) | SMILES
< 10 µM | > 10 µM | < 1 µM | – | > 10 µM | COc1ccc(Nc2ccc(C(=O)c3c[nH]c4ncnc(NC(C)(C)C)c34)c(F)n2)cn1 [Compound P-4055, [4-(tert-butylamino)-7H-pyrrolo[2,3-d]pyrimidin-5-yl]-[2-fluoro-6-[(6-methoxy-3-pyridyl)amino]-3-pyridyl]methanone]
5 to 20 µM | > 10 µM | < 0.1 µM | – | > 10 µM | COc1ccc(Nc2ccc(C(=O)c3c[nH]c4ncnc(NC5CCC(F)(F)CC5)c34)c(F)n2)cn1 [Compound P-4056, [4-[(4,4-difluorocyclohexyl)amino]-7H-pyrrolo[2,3-d]pyrimidin-5-yl]-[2-fluoro-6-[(6-methoxy-3-pyridyl)amino]-3-pyridyl]methanone]
> 10 µM | > 10 µM | > 1 µM | < 1 µM | > 10 µM | O=C(c1ccc(NC2CCC(F)(F)CC2)nc1Cl)c1c[nH]c2ncnc(NCC(F)(F)F)c12 [Compound P-4057, [2-chloro-6-[(4,4-difluorocyclohexyl)amino]-3-pyridyl]-[4-(2,2,2-trifluoroethylamino)-7H-pyrrolo[2,3-d]pyrimidin-5-yl]methanone]
> 10 µM | > 10 µM | > 1 µM | < 1 µM | > 10 µM | CNc1ncnc2[nH]cc(C(=O)c3ccc(NC4CCC(F)(F)CC4)nc3Cl)c12 [Compound P-4058, [2-chloro-6-[(4,4-difluorocyclohexyl)amino]-3-pyridyl]-[4-(methylamino)-7H-pyrrolo[2,3-d]pyrimidin-5-yl]methanone]
> 10 µM | > 10 µM | < 1 µM | < 0.1 µM | > 10 µM | O=C(c1ccc(NC2CCC(F)(F)CC2)nc1Cl)c1c[nH]c2ncnc(NC3CC3)c12 [Compound P-4059, [2-chloro-6-[(4,4-difluorocyclohexyl)amino]-3-pyridyl]-[4-(cyclopropylamino)-7H-pyrrolo[2,3-d]pyrimidin-5-yl]methanone]
> 10 µM | > 10 µM | < 0.1 µM | < 0.01 µM | > 10 µM | CCNc1ncnc2[nH]cc(C(=O)c3ccc(Nc4ccc(C5CC5)nc4)nc3F)c12 [Compound P-4060, [6-[(6-cyclopropyl-3-pyridyl)amino]-2-fluoro-3-pyridyl]-[4-(ethylamino)-7H-pyrrolo[2,3-d]pyrimidin-5-yl]methanone]
> 10 µM | > 10 µM | > 1 µM | < 0.1 µM | > 10 µM | O=C(c1ccc(NC2CCC(F)(F)CC2)nc1F)c1c[nH]c2ncnc(NCC(F)(F)F)c12 [Compound P-4061, [6-[(4,4-difluorocyclohexyl)amino]-2-fluoro-3-pyridyl]-[4-(2,2,2-trifluoroethylamino)-7H-pyrrolo[2,3-d]pyrimidin-5-yl]methanone]
– | – | < 1 µM | < 0.01 µM | – | CNc1ncnc2[nH]cc(C(=O)c3ccc(Nc4ccc(OC)nc4)nc3OC)c12 [Compound P-4085, [2-methoxy-6-[(6-methoxy-3-pyridyl)amino]-3-pyridyl]-[4-(methylamino)-7H-pyrrolo[2,3-d]pyrimidin-5-yl]methanone]
– | – | < 1 µM | < 0.1 µM | – | CCc1ccc(Nc2ccc(C(=O)c3c[nH]c4ncnc(Nc5ccc(C)nc5)c34)c(F)n2)cn1 [Compound P-4086, [6-[(6-ethyl-3-pyridyl)amino]-2-fluoro-3-pyridyl]-[4-[(6-methyl-3-pyridyl)amino]-7H-pyrrolo[2,3-d]pyrimidin-5-yl]methanone]
